According to article PMC9636434, “Discovery of small molecule agonists of the Relaxin Family Peptide Receptor 2” (Communications Biology, 2022):
“And” between values parts separate entries of the source, which are not always exact repeats. Equal entries are not always repeated.

Columns and labels:
HCO cells = assay: CellTiter-Glo cytotoxicity assay in HCO cells; format: cell-based, human; settings: experiments (1)-(3)
From the text: Fig. 4 RXFP2 agonists induce mineralization of primary human osteoblasts and are non-cytotoxic. a Mineral hydroxyapatite fluorescent quantification after 14-day treatment in HCO cells. Results were normalized to control DMSO as 100% mineralization. b HCO and c HAVSMC toxicity after 24-h treatment with RXFP2 agonists, normalized to DMSO treatment as 0% toxicity. Results are expressed as mean ± SEM of 3 independent experiments. *p < 0.05, *** p < 0.001 vs. DMSO using One-way ANOVA.
Cell viability studies were undertaken to identify potential cytotoxic effects of the RXFP2 agonists. HCO cells and human aortic vascular smooth muscle cells (HAVSMC) were treated for 24 h. […] At 8.3 µM and below, no toxicity was found in HCO cells and toxicity was below 20% in HAVSMC cells for all three compounds (Fig. 4b, c).
The ATP CellTiter-Glo Luminescent Cell Viability Assay (Promega, Madison, WI) was used to measure cytotoxicity induced by the compounds in HCO cells and human aortic vascular smooth muscle cells (HAVSMC) (ATCC, Manassas, VA). HCO and HAVSMC cells were seeded in 96-well plates at 3000 and 7000 cells per well respectively. Cells were incubated overnight, treated with compound or DMSO vehicle and incubated for 24 h at 37 °C, 5% CO2. […] Plates were shaken for 2 min, incubated at room temperature for 10 min and the luminescent signal was read on a CLARIOstar plate reader.

RXFP2 = RXFP2 (Homo sapiens, UniProt Q8WXD0); assay: PRESTO-Tango β-arrestin recruitment, RXFP2; format: cell-based; design: host or cells: HTLA (transient); settings: 10 µM compound
Experimental: β-arrestin is an important GPCR adaptor protein that mediates several receptor processes including signaling, desensitization, and trafficking. The PRESTO-Tango GPCRome assay was further used to test specificity and selectivity of lead RXFP2 agonists 6641 and 4337. GPCR-mediated β-arrestin recruitment for a panel of 320 human GPCRs was studied in transiently transfected HTLA cells treated with 10 µM compound. The results for all 320 GPCRs tested are summarized in Supplementary Data 1. […] ADORA1 activation by an agonist results in Gαi protein binding, an inhibition of adenylate cyclase and, therefore, a decrease in the cAMP concentration.
To further investigate possible off-target effects of small molecule agonists of RXFP2 on GPCRs, we performed a PRESTO-Tango assay of 320 GPCRs to detect β-arrestin recruitment to the receptors after treatment with our compounds. […] This might be beneficial in clinical applications, as it potentially reduces the amount of drug needed to induce a biological response for this target, even in cells with low receptor expression. It should be noted also that a PRESTO-Tango assay is not designed to detect inhibitors of β-arrestin recruitment.
The PRESTO-Tango GPCRome assay was used to perform a HTS of related GPCRs to study specificity and selectivity of the RXFP2 agonists by measuring β-arrestin translocation activity. […]

vertebrae and femur = assay: Biomechanical testing of L3 vertebrae (compression) and femur (3-point bending); format: in vivo, mouse; settings: for Elastic Modulus (MPa) / Ultimate Stress (MPa) / Yield Stress (MPa): individual mice
From the text: Previously it was established that C57BL/6 J female mice start losing trabecular bone mass naturally after they reach 8 weeks of age, which provides a model to study the anabolic effects of compound on bone metabolism. The use of females provides a test model with low if any basal INSL3 exposure. […] As previously reported, INSL3 induces an increase in Alp in primary human osteoblasts[20] (Supplementary Fig. 11b) while 6641 induces an increase in Osteocalcin expression (Fig. 5b). After micro-CT scanning, these same lumbar spine and femur from 6641- and vehicle-treated mice were utilized for biomechanical testing. The femurs were tested in a 3-point bending test and the L3 vertebrae in a compression test using an ElectroForce 5500 Test Instrument (TA Instruments, New Castle, DE) with a ramp rate of 0.05 mm/sec and support span of 8.1 mm, running […] software version 8.2. Time, force, and displacement were collected for use in the analysis of mechanical and material properties using custom MATLAB codes (MathWorks, Natick, MA). The Moment of Inertia (MoI) was calculated based on the micro-CT measurements. […] Biomechanical material properties in a vertebrae and b femur of vehicle- and compound- treated female mice. 12 and 15 mice were used in the vehicle and compound groups respectively. p = ns (Student's t-test). (1 picture or pasted object on this page, not shown here)

[1] = Supplementary Figure 15a, L3 vertebrae compression
[2] = Supplementary Figure 15b, femur 3-point bending

Sequence of RXFP2 (Q8WXD0 whole entry): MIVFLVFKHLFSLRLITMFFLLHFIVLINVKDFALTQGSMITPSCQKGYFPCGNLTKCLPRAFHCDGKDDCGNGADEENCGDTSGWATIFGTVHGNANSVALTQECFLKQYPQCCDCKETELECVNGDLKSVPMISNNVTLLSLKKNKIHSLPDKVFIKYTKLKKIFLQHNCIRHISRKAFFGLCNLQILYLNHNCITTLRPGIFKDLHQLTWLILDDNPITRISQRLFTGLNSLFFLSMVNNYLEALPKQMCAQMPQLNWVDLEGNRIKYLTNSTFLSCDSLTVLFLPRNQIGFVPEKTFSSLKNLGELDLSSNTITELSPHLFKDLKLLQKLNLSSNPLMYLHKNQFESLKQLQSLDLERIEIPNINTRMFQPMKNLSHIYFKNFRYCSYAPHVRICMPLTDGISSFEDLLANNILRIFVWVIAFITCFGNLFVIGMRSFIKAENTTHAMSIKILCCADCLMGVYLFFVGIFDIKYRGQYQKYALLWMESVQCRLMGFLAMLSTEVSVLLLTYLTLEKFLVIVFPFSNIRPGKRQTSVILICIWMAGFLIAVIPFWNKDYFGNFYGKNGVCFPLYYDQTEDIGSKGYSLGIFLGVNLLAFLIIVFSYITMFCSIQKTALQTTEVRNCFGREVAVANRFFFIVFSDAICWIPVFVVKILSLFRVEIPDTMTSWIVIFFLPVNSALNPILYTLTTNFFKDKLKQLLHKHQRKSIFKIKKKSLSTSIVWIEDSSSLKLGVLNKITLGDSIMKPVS

With O=C1Nc2ccc(-c3cc(C(F)(F)F)cc(C(F)(F)F)c3)cc2C(=O)N2CCN(C(=O)COc3ccc(OC(F)(F)F)cc3I)C[C@@H]12 [compound 6641] the “% Tox” value (HCO cells; Log [M] -6.03, 24 h) was -11.63% and -7.45% and -4.96%, the “% Tox” value (HCO cells; Log [M] -6.51, 24 h) was -9.76% and -5.09% and -6.71% and the “RXFP2-mediated β-arrestin recruitment” value (RXFP2) was “not detected”. For the same compound, the “biomechanical properties of vertebrae and femur” value (vertebrae and femur; 10 mg/kg PO 3 times per week, 8 weeks) was “no changes”, the “Elastic Modulus (MPa)” value (vertebrae and femur; [1]) was 153.265 MPa and 132.946 MPa and 187.209 MPa and 254.765 MPa and 121.079 MPa and 235.799 MPa and 193.606 MPa and 184.897 MPa and 170.559 MPa and 170.73 MPa and 159.611 MPa and 225.093 MPa and 77.447 MPa and 155.764 MPa and 159.911 MPa and the “Ultimate Stress (MPa)” value (vertebrae and femur; [1]) was 14.1661 MPa and 20.1523 MPa and 16.2174 MPa and 22.2452 MPa and 21.0001 MPa and 22.5708 MPa and 23.224 MPa and 14.0488 MPa and 8.99 MPa and 16.5244 MPa and 23.9179 MPa and 31.2724 MPa and 15.8471 MPa and 17.3612 MPa and 20.3053 MPa. The “Yield Stress (MPa)” value (vertebrae and femur; [1]) was 13.761 MPa and 16.4161 MPa and 15.4319 MPa and 20.1436 MPa and 20.5667 MPa and 22.2148 MPa and 17.2035 MPa and 13.8315 MPa and 7.519 MPa and 16.2742 MPa and 23.3124 MPa and 30.0585 MPa and 14.6642 MPa and 10.8847 MPa and 20.2754 MPa, the “Elastic Modulus (MPa)” value (vertebrae and femur; [2]) was 7398.92 MPa and 8063.16 MPa and 7172.9 MPa and 5490.74 MPa and 6726.89 MPa and 7530 MPa and 6047.64 MPa and 5378.62 MPa and 5004.38 MPa and 6512.17 MPa and 8227.03 MPa and 6891.88 MPa and 7622.53 MPa and 6100.62 MPa and 7209.2 MPa and the “Ultimate Stress (MPa)” value (vertebrae and femur; [2]) was 125.43 MPa and 114.53 MPa and 121.49 MPa and 120.23 MPa and 113.48 MPa and 123.54 MPa and 148.86 MPa and 112.5 MPa and 116.79 MPa and 97.01 MPa and 135.98 MPa and 139.67 MPa and 122.96 MPa and 105.85 MPa and 123.21 MPa. For the same compound, the “Yield Stress (MPa)” value (vertebrae and femur; [2]) was 75.91 MPa and 60.78 MPa and 69.18 MPa and 62.13 MPa and 66.41 MPa and 57.07 MPa and 119.15 MPa and 57.74 MPa and 99.95 MPa and 60.92 MPa and 107.1 MPa and 79.8 MPa and 112.52 MPa and 62.12 MPa and 77.2 MPa.
